# Test results from ChEMBL document CHEMBL3832073, “DailyMed|setid=217e52b5-3a7b-4bbe-af3c-b18de7d426c3 | ABILIFY - aripiprazole tablet|Rebel Distributors Corp”.
# Legend:
# [1] = Evaluation of pharmacokinetic parameters for Aripiprazole following oral, intravenous or intramuscular administration of azipiprazole.; format: ADME, organism-based; settings: human, in vivo, dosed compound id 19, dosed compound name ARIPIPRAZOLE, tissue Plasma
# [2] = Evaluation of pharmacokinetic parameters for Aripiprazole following single oral administration of azipiprazole.; format: ADME, organism-based; settings: human, in vivo, dosed compound id 19, dosed compound name ARIPIPRAZOLE, regimen Single dose, tissue Plasma
smiles,measurement,setting,value
O=C1CCc2ccc(OCCCCN3CCN(c4cccc(Cl)c4Cl)CC3)cc2N1 [ARIPIPRAZOLE],bioavailability,"[1]; im, at 5 mg, gender male and female, route intramuscular",100%
same,Tmax,"[1]; im, gender male and female, route intramuscular",1 h
same,Vd,"[1]; route iv, read-out: Vss",404 L
same,Tmax,[2],3 to 5 h
